Assay results from patent publication US20030229114A1, “Pyrroloquinoline quinone drugs as a neuroprotectant and methods of use thereof” (priority 2002, published 2003).
Values joined by “and” are separate entries in the source; they are usually repeats but may differ in a detail not shown here. Identical values can stand only once. “Also recorded” adds a separate entry of the source.

How the values were obtained:
[1] = test system: cultured rat forebrain neurons; experiment: Assay of intracellular ATP in neuronal cultures (firefly luciferase); assay type: cell-based
Procedure: (§1) Medium was not subsequently changed.
Experiments were carried out exclusively in EBSS. […] PQQ was directly dissolved in EBSS.
The Bioluminescent Somatic Cell Assay kit from Sigma (catalog No. FL-ASC) was used for assay of ATP as previously described (Rosenberg et al., 2000). At selected time points after addition of drug or vehicle, medium was removed, and then replaced with 200 μl of cell lysis agent. After brief agitation, the medium was transferred to microcentrifuge tubes that contained 200 μl of water. The tubes were placed on wet ice until assay. ATP assay mix was used at 25-fold dilution, and 100 μl of the extract was assayed.

[2] = test system: cultured rat forebrain neurons; experiment: Measurement of intracellular cGMP in neuronal cultures (enzyme-linked immunoassay); assay type: cell-based
Procedure: as §1
Intracellular cGMP was assayed by enzyme-linked immunoassay (Amersham). Cultures were washed three times, and then medium was replaced by EBSS with or without PQQ or SOD. The non-specific phosphodiesterase inhibitor, 3-isobutyl-1-methylxanthine (IBMX) at 100 μM was present in all conditions. DEA/NO, SIN-1 and peroxynitrite were added for 5 min, and then the medium was replaced with 200 μl of releasing reagent provided in the kit. The plates were agitated for 20 min at room temperature, and 20 μl of acetylation reagent was added. After 5 min, 50 μl samples were taken for assay.

[3] = test system: cultured rat forebrain neurons; experiment: Survival assay of neuronal cultures (Alamar Blue reduction, 24 hr); details: for Synergism with NMDA in producing neurotoxicity: DEA/NO 100 μM, DPT/NO 300 μM; for Cell (neuronal) survival: ONOO− 100 μM alone, without PQQ; for Effect on neurotoxicity induced by NMDA plus DETA/NO: PBN at 10 mM, TEMPO at 1 mM applied 1 hr before
Procedure: Neuronal cultures were prepared from embryonic day 16 Sprague Dawley rat fetuses using methods similar to those previously described (Dichter, 1978) but modified to produce cultures that contained <1% astrocytes (Rosenberg and Aizenman, 1989; Rosenberg, 1991; Rosenberg et al., 1992; Wang et al., 1998). Cultures were initially plated on poly-L-lysine-coated 24-well plastic plates (Costar, Cambridge, Mass.) using an 80:10:10 (v/v) mixture ofDMEM (Life Technologies 11960-010), Ham's F-12 (Sigma, N-4888), heat-inactivated iron-supplemented calf serum (Hyclone A2151), containing 2 mM glutamine, 25 mM HEPES, 24 U/ml penicillin, and 24 μg/ml streptomycin and maintained in a 5% CO2 (balance air) incubator at 36° C. Cell proliferation was inhibited by exposure to 5 μM cytosine arabinoside at 24 hr in vitro for 72 hr. On the fourth day of culture, the medium was completely removed and replaced with 90% MEM, 10% Nuserum IV (Collaborative Research), 2 mM glutamine, 5 mM HEPES, containing 50 units/ml superoxide dismutase (Boehringer Mannheim, Indianapolis, Ind.), 20 units/ml catalase (Sigma CV-40), total glucose 11 mM, and total sodium bicarbonate 9.3 mM, plus 2% B27 supplement (Life Technologies 17504-036). Medium was not subsequently changed. To prevent evaporation of water, culture dishes were kept in wet dishes containing filter paper that was always kept wet.
In all experiments, 24-well plates were first washed three times in Hank's balanced salt solution (HBSS) containing 0.1% bovine serum albumin (BSA), and then they were placed in Earle's balanced salt solution (EBSS, which is composed of 116 mM NaCl, 5.4 mM KCl, 1.8 mM CaCl2, 0.8 mM MgSO4, 26 mM NaHCO3, 1 mM NaH2PO4 and 5.5 mM D-glucose). Experiments were carried out exclusively in EBSS. […] PQQ was directly dissolved in EBSS.
Survival of cells was determined after 24 hr exposure to the test compounds by assessing the ability of cultures to reduce Alamar Blue (Trek Diagnostic Systems, Inc., Westlake, Ohio) as an index of viability (McGahon et al., 1995). Details of this procedure have been provided elsewhere (Back et al., 1998, 1999). In brief, the test medium was removed after 24 hr, and then replaced with EBSS plus a 1:100 dilution of Alamar Blue. After 2 hr exposure, the medium was diluted 50-fold with water, and the fluorescence intensity was determined in a Hitachi fluorescence spectrophotometer using an excitation wavelength of 530 nm and an emission wavelength of 590 nm. The photomultiplier voltage was set at 700 V. In some experiments, the cell viability determined by Alamar Blue was compared to that determined by the assay of lactate dehydrogenase (LDH) release (Koh and Choi, 1987).

G93A-SOD transgenic mice = details: cited from earlier work
Oligodendrocytes = experiment: In vitro white matter injury assay: SIN-1 toxicity in oligodendrocytes; assay type: cell-based; details: 2 hr exposure in EBSS; examined at 24 hr
Procedure: Oligodendrocytes were exposed to various concentrations of SIN-1 (0, 0.25, 0.5, 1 and 2 mM) in EBSS for 2 hr with or without PQQ (100 μM), then washed with HBSS containing 0.1% BSA for 2 times. Oligodendrocytes were then returned to the culture medium. The neurotoxicity was examined at 24 hr.
To illustrate the neuroprotective benefits of the invention, PQQ was used to show oligodendrocytes protection from cell toxicity in an in vitro white matter injury assay. Oligodendrocytes were exposed to various concentrations of SIN-1 (0, 0.25, 0.5, 1 and 2 mM) in EBSS for 2 hr with or without PQQ (100 μM), then washed with HBSS containing 0.1% BSA for 2 times. Oligodendrocytes were then returned to the culture medium. The neurotoxicity was examined at 24 hr.

BSA = experiment: Western blot of BSA tyrosine nitration, cell-free (anti-nitrotyrosine antibody); assay type: biochemical, bovine; details: SIN-1 1 mM alone
Procedure: BSA (0.5 mg/ml) in EBSS with or without PQQ was exposed to SIN-1 or peroxynitrite for 1 hr, and then 4× sample buffer (40% glycerol, 20% β-mercaptoethanol, 0.004% bromophenol blue, 6.4% SDS, 25% 1M Tris-HCl, pH 6.8) was added. After the samples were heated for 5 min, 2 μg protein per lane was subjected to SDS-PAGE analysis, followed by transfer to PVDF membrane (NEN Life Science, Boston, Mass.) and reacted with a mouse anti-nitrotyrosine monoclonal antibody (Upstate Biotechnology). Proteins were visualized with horseradish peroxidase-conjugated sheep anti-mouse immunoglobulin G (IgG) followed by detection with enhanced chemiluminescence.

[4] = one hour after nitric oxide donor 1 mM alone
[5] = five minutes, agent alone: SIN-1 100 μM, ONOO− 100 μM or DEA/NO 10 μM, IBMX 100 μM
[6] = nitric oxide donor 1 mM alone (FIG. 6B)
[7] = nitric oxide donor 1 mM without MK-801 (FIG. 5A)

Molecule: CCN(CC)/[N+]([O-])=N/O.CCNCC [DEA/NO, diethylamine NONOate]
- Intracellular ATP [1, 4]: 51.6±5.8 % of control and 50.8±20.9 % of control
- Intracellular cGMP content [2, 5]: 250±15.5 % of control and 215±32.2 % of control and 318.5±31 % of control
- Neurotoxicity to neurons in culture ([3]; 1 mM, in three out of six experiments): did not cause any toxicity
- Synergism with NMDA in producing neurotoxicity [3]: synergism
- Neuronal survival [3, 6]: 48.7±14.6 % of control
- Neuronal survival [3, 7]: 18.2±5.3%

Molecule: NCCN(CCN)/[N+]([O-])=N/O [DETA/NO, diethylaminetriamine NONOate]
- Synergistic effect with kainate in producing neurotoxicity ([3]; DETA/NO 300 μM with kainate 20 μM): synergistic effect
- Neuronal survival [3, 6]: 25.2±10.6 % of control
- Neuronal survival [3, 7]: 27.9±8.0%

Molecule: NCCCN(CCCN)/[N+]([O-])=N/O [DPT/NO, dipropylenetriamine NONOate]
- Intracellular ATP [1, 4]: 62.6±4.5 % of control and 64.9±13.7 % of control
- Synergism with NMDA in producing neurotoxicity [3]: synergism
- Neuronal survival [3, 6]: 1.9±0.8 % of control
- Neuronal survival [3, 7]: 6.5±5.3%

Molecule: [Cl-].[Mn+3].[O-]c1ccccc1C=NCCN=Cc1ccccc1[O-] [EUK-8]
- Effect on protein tyrosine nitration (G93A-SOD transgenic mice): reduced protein tyrosine nitration
- Effect on survival of transgenic animals (G93A-SOD transgenic mice): prolonged survival

Molecule: COc1cccc(C=NCCN=Cc2cccc(OC)c2[O-])c1[O-].[Cl-].[Mn+3] [EUK-134]
- Effect on protein tyrosine nitration (G93A-SOD transgenic mice): reduced protein tyrosine nitration
- Effect on survival of transgenic animals (G93A-SOD transgenic mice): prolonged survival

Molecule: O=C(O)c1ccc(C2=C3C=CC(=N3)C(c3ccc(C(=O)O)cc3)=c3ccc([nH]3)=C(c3ccc(C(=O)O)cc3)c3ccc([n-]3)C(c3ccc(C(=O)O)cc3)c3ccc2[n-]3)cc1.[Cl-].[Mn+3] (centres unmarked) [MnTBAP, Mn (III) tetrakis (4-benzoic acid) porphyrin chloride]
- Effect on SIN-1 toxicity ([3]; MnTBAP 100 μM, SIN-1 1 mM): completely protected
- Effect on neurotoxicity induced by SIN-1 ([3]; MnTBAP (TBAP), SIN-1 1 mM): completely blocks
- Effect on ONOO− (peroxynitrite) toxicity ([3]; MnTBAP, ONOO− 100 μM): blocked; also recorded: fully protected

Molecule: CN[C@H](CC(=O)O)C(=O)O [NMDA]
- Toxicity to neurons, applied alone ([3]; 24 h exposure, NMDA 20 μM or DETA/NO 300 μM): does not produce toxicity

Molecule: O=NOO [ONOO^−, peroxynitrite]
- Intracellular ATP ([1]; of control values, 1 hr ONOO− 100 μM alone): 37±9.9%
- Intracellular ATP ([1]; of control values, 1 hr ONOO− 100 μM alone, listed as peroxynitrite): 40.5±11%
- ATP level after 5 min exposure ([1]; peroxynitrite 100 μM, 5 min): 50 % of its original levels
- Intracellular cGMP content [2, 5]: 111±11.2 % of control and 97±14.4 % of control
- Intracellular cGMP content ([2]; five minutes, agent alone: SIN-1 100 μM, ONOO− 100 μM or DEA/NO 10 μM, IBMX 100 μM, listed as peroxynitrite): 95.6±4.3 % of control
- Cell (neuronal) survival [3]: 52.4±0.4%
- Cell (neuronal) survival ([3]; listed as peroxynitrite): 49±7.3%

Molecule: CC(C)(C)[N+]([O-])=Cc1ccccc1 [PBN, alpha-phenyl-N-tert butyl nitrone]
- Effect on neurotoxicity induced by NMDA plus DETA/NO ([3]; 24 hr exposure): not demonstrably neuroprotective; also recorded: no demonstrable effect
- Effect on neurotoxicity induced by NMDA plus DETA/NO ([3]; four hour exposure): complete neuroprotection; also recorded: block

Molecule: N=c1c[n+](N2CCOCC2)[n-]o1 [SIN-1, 3-morpholinosydnonimine]
- Exposure time to maximal ATP depletion ([1]; SIN-1 1 mM): 1 h
- Intracellular ATP ([1]; of control values, 1 hr exposure to SIN-1 1 mM alone): 43±15.6% and 43.3±18.7%
- EC50 (Oligodendrocytes): 345 ± 91 µM
- Intracellular cGMP content [2, 5]: 192±10.7 % of control and 207.6±11.5 % of control and 220.5±39.4 % of control
- Nitration of BSA (BSA): strong nitration

Molecule: CC1(C)CCCC(C)(C)N1[O] [TEMPO, 2,2,6,6-tetramethyl-1-piperidinyl-1-oxyl]
- Effect on neurotoxicity induced by NMDA plus DETA/NO ([3]; 24 hr exposure): not demonstrably neuroprotective; also recorded: no demonstrable effect
- Effect on neurotoxicity induced by NMDA plus DETA/NO ([3]; four hour exposure): complete neuroprotection; also recorded: block

Molecule: SOD: bovine superoxide dismutase
- Intracellular cGMP content ([2]; DEA/NO 10 μM in the presence of SOD 100 U/ml): 310.3±33.4 % of control
- Intracellular cGMP content ([2]; ONOO− 100 μM in the presence of SOD 100 U/ml): 131±6 % of control
- Intracellular cGMP content ([2]; SIN-1 100 μM in the presence of SOD 100 U/ml): 327.7±39.5 % of control
- Effect on cGMP accumulation induced by SIN-1 ([2]; SOD 100 U/ml, SIN-1 100 μM): effect similar to that of PQQ; also recorded: enhanced
- Effect on SIN-1 toxicity to neurons ([3]; SOD 100 U/ml co-applied with SIN-1 500 μM, no catalase): potentiated
- Effect on SIN-1 toxicity ([3]; SOD 100 U/ml together with catalase (CAT) 100 U/ml, SIN-1 1 mM, 24 hr): completely blocked; also recorded: fully prevented
- Neuronal survival ([3]; co-application of SOD 100 U/ml and SIN-1 500 μM): 16.8±6.3 % of control and 11.6±1.2 % of control
